Results reported in PubChem BioAssay (NCI).
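Following 48 hours of exposure in 96-well plates, responses at five concentrations were used to interpolate endpoints linearly. Abbreviation: GI50, concentration required for 50% inhibition of growth. TGI: concentration producing complete growth inhibition.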

Assays:
Experiment in all cases: DTP human tumour cell line panel, 48 h
[1] = tested on: KM12 colon
[2] = tested on: T-47D breast
[3] = tested on: UACC-257 melanoma
[4] = tested on: OVCAR-3 ovarian
[5] = tested on: HS 578T breast
[6] = tested on: SK-MEL-28 melanoma
[7] = tested on: NCI-H226 lung
[8] = tested on: OVCAR-8 ovarian
[9] = tested on: A549 NSCLC
[10] = tested on: HT29 colon

Structure (SMILES) | GI50 [1] | TGI [1] | GI50 [2] | TGI [2] | GI50 [3] | TGI [3] | GI50 [4] | TGI [4] | GI50 [5] | TGI [5] | GI50 [6] | TGI [6] | GI50 [7] | TGI [7] | GI50 [8] | TGI [8] | GI50 [9] | TGI [9] | TGI [10] | GI50 [10]
C#Cc1cnc(=O)n(C2CC(O)C(CO)O2)c1 (stereo not drawn) | > 100 µM | > 100 µM | > 100 µM | > 100 µM | > 54.5 µM | 98.1 µM | 97 µM | > 100 µM | > 100 µM | > 100 µM | > 100 µM | > 100 µM | > 100 µM | > 100 µM | > 100 µM | > 100 µM | > 100 µM | > 100 µM | – | –
CCOc1ccc(NC(=O)CC2Sc3ccccc3NC2=O)cc1 (stereo not drawn) | – | 95.2 µM | – | – | – | > 100 µM | – | > 100 µM | – | – | – | > 100 µM | – | > 100 µM | – | 42.9 µM | – | > 100 µM | > 100 µM | –
O=C(c1cccs1)c1c(C(F)(F)F)n([O-])c2ccccc2[n+]1=O | 1.12 µM | 3.07 µM | 4.38 µM | 11.2 µM | – | – | 0.744 µM | 1.67 µM | 1.03 µM | 2.91 µM | 5.59 µM | 14.5 µM | 1.05 µM | 3.12 µM | 0.601 µM | 1.94 µM | 1.36 µM | 3.78 µM | 4.13 µM | 1.08 µM
CC(=O)[CH-]C(=O)c1ccccc1.CC(=O)[CH-]C(=O)c1ccccc1.CCCCCCCCCCCCCCCCCC(=O)[O-].CCCCCCCCCCCCCCCCCC(=O)[O-].[Ti+4] | 33.6 µM | > 100 µM | – | – | 24.6 µM | 68.5 µM | 18.9 µM | 38 µM | – | – | 23.7 µM | 60.5 µM | 14.5 µM | 34.3 µM | 22.6 µM | 48.3 µM | 19 µM | 37.3 µM | 44.9 µM | 20.8 µM
COC(=O)C(c1[nH]nc2ccccc12)C(C(=O)OC)c1[nH]nc2ccccc12 (stereo not drawn) | – | > 100 µM | – | – | – | > 100 µM | – | > 100 µM | – | – | – | > 100 µM | – | > 100 µM | – | 77.6 µM | – | > 100 µM | > 100 µM | –
O=C(C#Cc1c[nH]c(=O)[nH]c1=O)c1ccccc1Cl | – | 88.4 µM | – | – | – | 27.9 µM | – | 27.3 µM | – | – | – | 32 µM | – | 75.7 µM | – | 29.3 µM | – | > 100 µM | 96.9 µM | –
CCOC(=O)C1(CC)CCCCC(=O)N1 (stereo not drawn) | – | – | – | – | – | – | – | > 100 µM | – | – | – | > 100 µM | – | – | – | > 100 µM | – | > 100 µM | > 100 µM | –
NC(N)=N/N=C(/c1ccccc1)c1ccc(F)cc1 | 0.32 µM | 7.5 µM | – | – | 2.94 µM | 32.8 µM | 0.227 µM | 0.621 µM | 0.452 µM | 27.7 µM | 0.528 µM | 23 µM | 1.06 µM | 14.5 µM | 0.593 µM | > 35.1 µM | 0.512 µM | > 34.6 µM | 2.63 µM | 0.3 µM
O=C1/C(=C/c2ccc(F)cc2)CCOc2ccc([N+](=O)[O-])cc21 | 1.83 µM | 4.4 µM | – | – | 2.62 µM | 6.29 µM | 2.33 µM | 5.61 µM | 4.94 µM | 47.1 µM | – | – | 20.1 µM | 39.6 µM | 2.68 µM | 9.24 µM | 8.47 µM | 23.7 µM | – | –
